{
  "source": "paper PMC12067858",
  "about": "(Febs Letters, 2025)",
  "target": "T1, NcAA9C (Neurospora crassa, UniProt Q7SHI8)",
  "T1 construct": "gene gh61-3; copper-saturated",
  "T1 sequence (Q7SHI8 17-359)": "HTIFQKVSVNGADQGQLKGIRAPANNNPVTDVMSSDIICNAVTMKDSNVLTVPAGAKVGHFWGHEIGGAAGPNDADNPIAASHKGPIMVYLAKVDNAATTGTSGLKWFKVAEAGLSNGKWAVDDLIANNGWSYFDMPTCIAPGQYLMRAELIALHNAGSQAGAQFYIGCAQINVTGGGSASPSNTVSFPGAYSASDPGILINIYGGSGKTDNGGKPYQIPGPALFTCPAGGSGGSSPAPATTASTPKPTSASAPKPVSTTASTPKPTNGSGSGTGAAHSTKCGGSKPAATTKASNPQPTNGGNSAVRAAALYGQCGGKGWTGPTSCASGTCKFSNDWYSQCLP",
  "assay": "HPAEC-PAD of cellotriose product",
  "type": "biochemical",
  "conditions": "1 uM enzyme, 100 uM ascorbate, 100 uM H2O2, 50 mM MOPS pH 7.0, 30 C",
  "data": [
    {"smiles": "OC[C@H]1O[C@@H](O[C@H]2[C@H](O)[C@@H](O)[C@H](O[C@H]3[C@H](O)[C@@H](O)[C@H](O[C@H]4[C@H](O)[C@@H](O)[C@H](O[C@H]5[C@H](O)[C@@H](O)C(O)O[C@@H]5CO)O[C@@H]4CO)O[C@@H]3CO)O[C@@H]2CO)[C@H](O)[C@@H](O)[C@@H]1O", "note": "(stereo partly shown) [cellopentaose]", "values": [
      {"measurement": "HPAEC-PAD of cellotriose product", "result": "conversion of small, soluble and easily diffusible cellopentaose by NcAA9C"}
    ]}
  ]
}
